Measurements taken from the supplement of paper PMC11451515.

Legend:
Assay in all cases: AUC of viability dose-response curve (% viability x log10 dose units); higher = less sensitive
Conditions in all cases: 48 h
[1] = tested on: P12-Ichikawa
How it was run: (§1)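 Library compounds in DMSO were applied for 48 h at 37°C at 11 threefold doses (47 μM to 0.79 nM) to medium-adapted leukemia cells in 1536-well plates holding 500 or 1000 cells/well. Luminescence from CellTiter-Glo One was normalised plate by plate against DMSO and cell-free wells. Area under the curve came from trapezoidal integration of a log-logistic fit, after scaling curves that rose above full viability and discarding those that failed quality control. The fit had four parameters and used log10 doses.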

[2] = tested on: NOMO1
How it was run: as §1

[3] = tested on: SEM cells
How it was run: as §1

[4] = RPMI 5 mM glucose + 10% dialyzed FBS

Row | Structure (SMILES) | AUC of viability dose-response curve ([1]; HPLM + 10% dialyzed FBS) | AUC of viability dose-response curve ([1]; RPMI 5 mM glucose + 10% FBS) | AUC of viability dose-response curve [1, 4] | AUC of viability dose-response curve ([2]; HPLM + 10% dialyzed FBS) | AUC of viability dose-response curve ([2]; RPMI 5 mM glucose + 10% FBS) | AUC of viability dose-response curve [2, 4] | AUC of viability dose-response curve ([3]; HPLM + 10% dialyzed FBS) | AUC of viability dose-response curve ([3]; RPMI 5 mM glucose + 10% FBS) | AUC of viability dose-response curve [3, 4]
1 | CC[C@H]1CN2CCc3cc(OC)c(OC)cc3[C@@H]2C[C@@H]1C[C@H]1NCCc2cc(OC)c(OC)cc21 | 289 | 279 | 300 | 305 | 300 | 305 | 193 | 214 | 240
2 | Nc1ccc([S+](=O)([O-])Nc2ncccn2)cc1 | 464 | 452 | 471 | 467 | 444 | 452 | 460 | 462 | 437
3 | COc1cc(OC)c(C(=O)CCCN2CCCC2)c(OC)c1 | 464 | 456 | 417 | 448 | 440 | 441 | 446 | 451 | 443
4 | N#Cc1ccnc(N2C(=O)CC[C@H]2C(=O)N(c2cncc(F)c2)[C@H](C(=O)NC2CC(F)(F)C2)c2ccccc2Cl)c1 | 321 | 333 | 361 | 348 | 356 | 380 | 359 | 334 | 379
5 | CC(C)(O)C(=O)Nc1ccc([N+](=O)[O-])c(C(F)(F)F)c1 | 404 | 409 | 438 | 368 | 355 | 371 | 465 | 449 | 448
6 | O=[S+]([O-])(NCCNC/C=C/c1ccc(Br)cc1)c1cccc2cnccc12 | 462 | 460 | 458 | 452 | 446 | 425 | 377 | 418 | 354
7 | NCCc1ccc(O)c(O)c1 | 464 | 463 | 474 | 410 | 426 | 429 | 431 | 450 | 449
8 | O=C(O)Cc1cccc(OCCCN(Cc2cccc(C(F)(F)F)c2Cl)CC(c2ccccc2)c2ccccc2)c1 | 460 | 442 | 450 | 432 | 461 | 465 | 444 | 437 | 456
9 | COc1ccc(-c2oc3cc(OC)ccc3c2C(=O)c2ccc(C#N)cc2)cc1 | 354 | 345 | 374 | 326 | 311 | 321 | 455 | 460 | 451
10 | Cc1ccc(-c2cc(C(F)(F)F)nn2-c2ccc([S+](N)(=O)[O-])cc2)cc1 | 471 | 463 | 468 | 451 | 468 | 463 | 464 | 460 | 470
11 | O=C(NCc1ccccc1)c1csc(Nc2ccncn2)n1 | 386 | 358 | 367 | 345 | 331 | 335 | 310 | 287 | 310
12 | N#CC[C@H](C1CCCC1)n1cc(-c2ncnc3[nH]ccc23)cn1 | 408 | 401 | 372 | 384 | 374 | 407 | 405 | 396 | 402
13 | CN(C)CCOc1ccc(/C(=C(/CCCl)c2ccccc2)c2ccccc2)cc1 | 410 | 393 | 399 | 441 | 437 | 448 | 362 | 344 | 369
14 | C[C@H](NCc1ccc(OCc2cccc(F)c2)cc1)C(N)=O | 450 | 443 | 443 | 445 | 461 | 454 | 323 | 325 | 290
15 | CC(C)CC(N(C)C)C1(c2ccc(Cl)cc2)CCC1 (centres undefined) | 393 | 392 | 382 | 441 | 457 | 463 | 424 | 408 | 406
16 | Cc1cccc(-c2[nH]c(C(C)(C)C)nc2-c2ccc3c(c2)OCO3)n1 | 413 | 406 | 423 | 418 | 399 | 398 | 411 | 409 | 411
17 | N=C(N)Nc1ccc(C(=O)Oc2ccc3cc(C(=N)N)ccc3c2)cc1 | 437 | 443 | 404 | 446 | 406 | 396 | 419 | 392 | 441
18 | COC(=O)Nc1nc2ccc([S+]([O-])c3ccccc3)cc2[nH]1 (centres undefined) | 441 | 454 | 461 | 460 | 468 | 466 | 417 | 438 | 441
19 | C[N+]1(C)[C@@H]2CC(OC(=O)C(O)(c3cccs3)c3cccs3)C[C@H]1[C@@H]1O[C@@H]12 (some centres undefined) | 471 | 476 | 468 | 464 | 466 | 471 | 462 | 460 | 457
20 | CO[C@@H]1[C@@H](O)[C@H](O)[C@@H](n2c3c(Cl)cccc3c3c4c(c5c6cccc(Cl)c6[nH]c5c32)C(=O)NC4=O)O[C@H]1CO | 266 | 259 | 251 | 340 | 323 | 325 | 292 | 254 | 283
21 | C=CC(=O)Nc1ccc2ncnc(Nc3ccc(OCc4cccc(F)c4)c(Cl)c3)c2c1 | 404 | 404 | 404 | 355 | 368 | 355 | 370 | 400 | 383
22 | Cn1cnc([N+](=O)[O-])c1Sc1ncnc2nc[nH]c12 | 381 | 365 | 367 | 353 | 342 | 353 | 398 | 337 | 299
23 | CC(C)Cn1cnc2c(N)nc3ccccc3c21 | 442 | 451 | 463 | 450 | 466 | 448 | 459 | 452 | 455
24 | CCCCCCCCCCCC/1=C(O)/C(=O)/C=C(O)\C1=O | 357 | 357 | 375 | 326 | 301 | 326 | 462 | 454 | 457
25 | OC[C@H]1OC(OC2=CC3=C(C(=C2)O)C(=O)\C(=C/O3)C4=CC=C(O)C=C4)[C@H](O)[C@@H](O)[C@@H]1O (some centres undefined) | 405 | 401 | 391 | 391 | 407 | 372 | 408 | 454 | 451
26 | CC1=C(/C=C/C(C)=C/C=C/C(C)=C/C(=O)O)C(C)(C)CCC1 | 468 | 464 | 467 | 434 | 443 | 412 | 475 | 465 | 450
